Format in all cases: biochemical
In one assay the target is T1, HDAC1 enzyme (Homo sapiens, UniProt Q13547).
T1 construct: transducing full length HDAC1 and HDAC6 genes into Sf-9 insect cells; GST; purchased SignalChem; host or cells: Sf-9 insect cells
The experiment in a line: HDAC1 enzyme inhibitory assay (HDAC-Glo I/II Assay kit). The following applies: wells without enzyme = 100% inhibition; for inhibition at 1 µM: read-out: HDAC1 inhibitory rate (%) (1 μM). How it is done: (§1) HDAC1/6 Enzyme Inhibitory Assay
(§2) HDAC1 enzyme and HDAC6 enzyme each prepared by transducing full length HDAC1 and HDAC6 genes into Sf-9 insect cells and purifying by GST affinity column were purchased from SignalChem. Using these enzymes, HDAC1 and/or HDAC6 enzyme inhibitory activities of the compound of the present invention were evaluated. Enzymes were used after preserved at −70° C. HDAC1 or HDAC6 enzyme inhibitory activity of the compound of the present invention was measured using HDAC-Glo™ I/II Assay kit (Promega) according to the following experimental method. The test compound diluted with assay buffer (24 mM Tris-HCl (pH 7.5), 1 mM MgCl2, 0.35 mM KCl, 135 mM NaCl, 0.6 mM Glutathione, 0.01% Tween-20) was added to a 384-well plate by each 2 μL. Then, HDAC1 or HDAC6 enzyme solution diluted with assay buffer was added thereto by each 4 μL, and the plate was incubated at room temperature for 60 min. After incubated, HDAC substrate-Developer solution prepared according to Promega protocol attached to the assay kit was added to the 384-well plate by each 2 μL, and the enzyme reaction was started. After reacting at room temperature for 20 min, luminescence level was measured using plate reader Envision (PerkinElmer). The inhibitory activity of each compound was calculated as a relative activity value when luminescence level in wells without enzyme is considered as 100% inhibition.

For a further assay, the target named is T2, HDAC9 enzyme (Homo sapiens, UniProt Q9UKV0).
T2 construct: transducing full length HDAC9 gene into Sf-9 insect cells; made in house; host or cells: Sf-9 insect cells
The experiment in a line: HDAC9 enzyme inhibitory assay (HDAC-Glo class IIa). The following applies: wells without enzyme = 100% inhibition; for inhibition at 1 µM: read-out: HDAC9 inhibitory rate (%) (1 μM). How it is done: HDAC9 Enzyme Inhibitory Assay
Enzyme was prepared by transducing full length HDAC9 gene into Sf-9 insect cells and purifying by Ni-NTA affinity column, and HDAC9 enzyme inhibitory activity was evaluated. Enzymes were used after preserved at −70° C. HDAC9 enzyme inhibitory activity of the test compound was measured using HDAC-Glo class IIa (Promega) according to the following experimental method. The test compound diluted with assay buffer (24 mM Tris-HCl (pH 7.5), 1 mM MgCl2, 0.35 mM KCl, 135 mM NaCl, 0.6 mM Glutathione, 0.01% Tween-20) was added to a 384-well plate by each 2 μL. Then, HDAC9 enzyme solution diluted with assay buffer was added thereto by each 2 μL, and the plate was incubated at room temperature for 60 min. After incubated, HDAC substrate-Developer solution prepared according to Promega protocol was added to the 384-well plate by each 4 μL, and the enzyme reaction was started. After reacting at room temperature for 20 min, luminescence level was measured using plate reader Envision (PerkinElmer). The inhibitory activity of each compound was calculated as a relative activity value when luminescence level in wells without enzyme is considered as 100% inhibition.

Another assay concerns the target T3, HDAC6 enzyme (Homo sapiens, UniProt Q9UBN7).
T3 construct: transducing full length HDAC1 and HDAC6 genes into Sf-9 insect cells; GST; purchased SignalChem; host or cells: Sf-9 insect cells
T3 sequence (Q9UBN7 1-1215): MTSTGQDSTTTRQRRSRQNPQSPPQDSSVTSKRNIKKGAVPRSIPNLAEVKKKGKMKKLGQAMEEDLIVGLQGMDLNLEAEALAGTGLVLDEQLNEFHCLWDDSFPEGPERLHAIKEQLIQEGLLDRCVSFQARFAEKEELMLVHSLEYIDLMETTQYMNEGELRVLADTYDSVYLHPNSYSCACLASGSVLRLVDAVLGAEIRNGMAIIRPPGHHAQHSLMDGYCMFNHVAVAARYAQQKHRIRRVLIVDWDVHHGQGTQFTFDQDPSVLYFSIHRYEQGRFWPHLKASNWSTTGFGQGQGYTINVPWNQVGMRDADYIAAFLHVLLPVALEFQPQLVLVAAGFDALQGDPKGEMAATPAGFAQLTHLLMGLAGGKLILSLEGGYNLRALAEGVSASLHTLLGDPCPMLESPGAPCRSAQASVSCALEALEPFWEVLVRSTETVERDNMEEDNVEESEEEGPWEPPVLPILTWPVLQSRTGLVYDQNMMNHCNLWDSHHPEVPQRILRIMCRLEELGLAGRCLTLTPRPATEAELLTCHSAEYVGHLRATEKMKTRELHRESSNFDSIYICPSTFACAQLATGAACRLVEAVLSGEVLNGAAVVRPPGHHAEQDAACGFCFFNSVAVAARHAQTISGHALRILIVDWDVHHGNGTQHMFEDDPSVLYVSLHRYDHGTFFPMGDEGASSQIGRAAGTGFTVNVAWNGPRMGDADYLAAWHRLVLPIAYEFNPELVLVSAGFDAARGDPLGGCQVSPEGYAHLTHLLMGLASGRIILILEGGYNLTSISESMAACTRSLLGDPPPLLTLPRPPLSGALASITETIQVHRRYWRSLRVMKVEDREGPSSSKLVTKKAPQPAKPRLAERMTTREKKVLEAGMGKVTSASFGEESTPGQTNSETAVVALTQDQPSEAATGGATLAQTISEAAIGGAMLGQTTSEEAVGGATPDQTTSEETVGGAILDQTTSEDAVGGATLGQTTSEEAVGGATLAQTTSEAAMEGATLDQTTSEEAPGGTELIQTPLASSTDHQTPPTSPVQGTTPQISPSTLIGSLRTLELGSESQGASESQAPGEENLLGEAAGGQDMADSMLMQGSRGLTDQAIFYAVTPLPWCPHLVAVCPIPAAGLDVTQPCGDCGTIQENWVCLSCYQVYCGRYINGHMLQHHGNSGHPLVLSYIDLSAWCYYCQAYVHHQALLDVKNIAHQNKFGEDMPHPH
In words: HDAC6 enzyme inhibitory assay (HDAC-Glo I/II Assay kit). Particulars: wells without enzyme = 100% inhibition; for inhibition at 1 µM: read-out: HDAC6 inhibitory rate (%) (1 μM). How it is done:
as §1, §2

Each structure is given as a SMILES string.

T1 sequence (Q13547 whole entry): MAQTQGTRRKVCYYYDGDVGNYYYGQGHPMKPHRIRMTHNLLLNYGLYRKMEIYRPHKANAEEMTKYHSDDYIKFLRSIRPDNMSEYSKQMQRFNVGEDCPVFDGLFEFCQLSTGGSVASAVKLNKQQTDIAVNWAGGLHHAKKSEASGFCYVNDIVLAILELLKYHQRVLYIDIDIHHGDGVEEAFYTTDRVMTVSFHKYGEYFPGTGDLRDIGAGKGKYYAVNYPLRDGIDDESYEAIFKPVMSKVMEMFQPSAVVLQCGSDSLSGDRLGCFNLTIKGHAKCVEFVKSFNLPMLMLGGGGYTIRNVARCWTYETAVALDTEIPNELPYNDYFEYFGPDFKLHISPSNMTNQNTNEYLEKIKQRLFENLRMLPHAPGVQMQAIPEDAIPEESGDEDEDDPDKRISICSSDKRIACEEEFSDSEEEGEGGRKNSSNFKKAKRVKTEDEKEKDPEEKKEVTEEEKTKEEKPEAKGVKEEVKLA
T2 sequence (Q9UKV0 whole entry, species assumed): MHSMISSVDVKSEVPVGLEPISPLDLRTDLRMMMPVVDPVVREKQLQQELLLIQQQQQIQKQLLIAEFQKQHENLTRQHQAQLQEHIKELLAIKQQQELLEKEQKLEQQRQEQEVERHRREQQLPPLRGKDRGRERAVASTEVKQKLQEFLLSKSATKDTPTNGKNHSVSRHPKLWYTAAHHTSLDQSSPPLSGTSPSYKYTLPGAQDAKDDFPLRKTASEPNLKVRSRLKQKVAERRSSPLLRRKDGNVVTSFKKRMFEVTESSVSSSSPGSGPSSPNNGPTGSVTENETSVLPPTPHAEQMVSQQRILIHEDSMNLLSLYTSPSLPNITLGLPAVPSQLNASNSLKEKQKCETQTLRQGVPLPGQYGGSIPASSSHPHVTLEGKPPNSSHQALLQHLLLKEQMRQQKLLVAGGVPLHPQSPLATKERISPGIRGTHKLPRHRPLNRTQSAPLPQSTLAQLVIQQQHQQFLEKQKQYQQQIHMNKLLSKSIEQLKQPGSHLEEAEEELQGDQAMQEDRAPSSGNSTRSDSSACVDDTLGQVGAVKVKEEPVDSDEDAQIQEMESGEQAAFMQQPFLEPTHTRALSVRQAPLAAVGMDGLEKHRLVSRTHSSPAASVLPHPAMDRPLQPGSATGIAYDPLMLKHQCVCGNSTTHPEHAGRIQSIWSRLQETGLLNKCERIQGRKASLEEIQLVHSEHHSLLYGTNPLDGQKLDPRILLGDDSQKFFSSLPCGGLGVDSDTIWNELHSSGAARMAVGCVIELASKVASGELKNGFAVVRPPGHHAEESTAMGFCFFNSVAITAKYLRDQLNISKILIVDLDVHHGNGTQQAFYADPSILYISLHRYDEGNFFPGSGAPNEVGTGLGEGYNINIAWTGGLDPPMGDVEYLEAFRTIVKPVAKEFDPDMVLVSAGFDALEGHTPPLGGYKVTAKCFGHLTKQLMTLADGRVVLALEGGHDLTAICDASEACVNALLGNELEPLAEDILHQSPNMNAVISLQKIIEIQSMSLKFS

Regarding `O=C(NCC1CCCCN1C(=O)Nc1ccc(-c2noc(C(F)(F)F)n2)cc1)c1ccc(Cl)cc1` (stereo not drawn) [Example 9, 2-(((4-chlorobenzoyl)amino)methyl)-N-(4-(5-(trifluoromethyl)-1,2,4-oxadiazol-3-yl)phenyl)piperidine-1-carboxamide], the values for the inhibition at 1 µM on HDAC1 enzyme, at HDAC9 enzyme and on HDAC6 enzyme were 4%, 94% and 3%, respectively.

Turning to `N#Cc1cccc(C(=O)NCC2CCCCN2C(=O)Nc2ccc(-c3noc(C(F)(F)F)n3)cc2)c1` (stereo not drawn) [Example 20, 2-(((3-cyanobenzoyl)amino)methyl)-N-(4-(5-(trifluoromethyl)-1,2,4-oxadiazol-3-yl)phenyl)piperidine-1-carboxamide], the results for the inhibition at 1 µM on HDAC1 enzyme, at HDAC9 enzyme and on HDAC6 enzyme were 32%, 95% and 4%, respectively.

As for `O=C(NCC1COCCN1C(=O)Nc1ccc(-c2noc(C(F)(F)F)n2)cc1)c1ccccc1` (stereo not drawn) [Example 1, 3-((benzoylamino)methyl)-N-(4-(5-(trifluoromethyl)-1,2,4-oxadiazol-3-yl)phenyl)morpholine-4-carboxamide], the figures for the inhibition at 1 µM on HDAC1 enzyme, on HDAC9 enzyme and on HDAC6 enzyme were 62%, 98% and 6%, respectively.

As for `Cc1cccc(C(=O)NCC2CCCCN2C(=O)Nc2ccc(-c3noc(C(F)(F)F)n3)cc2)c1` (stereo not drawn) [Example 11, 2-(((3-methylbenzoyl)amino)methyl)-N-(4-(5-(trifluoromethyl)-1,2,4-oxadiazol-3-yl)phenyl)piperidine-1-carboxamide], the inhibition at 1 µM was 20% on HDAC1 enzyme, 90% at HDAC9 enzyme and 5% at HDAC6 enzyme.

As for `O=C(NCC1CCCCN1C(=O)Nc1ccc(-c2noc(C(F)(F)F)n2)cc1)c1ccc(Cl)c(Cl)c1` (stereo not drawn) [Example 32, 2-(((3,4-dichlorobenzoyl)amino)methyl)-N-(4-(5-(trifluoromethyl)-1,2,4-oxadiazol-3-yl)phenyl)piperidine-1-carboxamide], the figures for the inhibition at 1 µM at HDAC1 enzyme, on HDAC9 enzyme and on HDAC6 enzyme were -10%, 62% and 0%, respectively.

For `Cn1cnc(C(=O)NCC2CCCCN2C(=O)Nc2ccc(-c3noc(C(F)(F)F)n3)cc2)c1` (stereo not drawn) [Example 40, 2-((((1-methyl-1H-imidazol-4-yl)carbonyl)amino)methyl)-N-(4-(5-(trifluoromethyl)-1,2,4-oxadiazol-3-yl)phenyl)piperidine-1-carboxamide], the inhibition at 1 µM turned out to be 11% on HDAC1 enzyme, 76% at HDAC9 enzyme and 3% on HDAC6 enzyme.

For the compound `O=C(NCC1CCCCN1C(=O)Nc1ccc(-c2noc(C(F)(F)F)n2)cc1)c1ccnc(O)c1` (stereo not drawn) [Example 58], the “HDAC1 inhibitory rate (%) (1 μM)” value on HDAC1 enzyme was found to be 25%. The “HDAC9 inhibitory rate (%) (1 μM)” value at HDAC9 enzyme is on record as 87%. The “HDAC6 inhibitory rate (%) (1 μM)” value on HDAC6 enzyme is given as 3%.

On to `COc1ccccc1C(=O)NCC1CCCCN1C(=O)Nc1ccc(-c2noc(C(F)(F)F)n2)cc1` (stereo not drawn) [Example 23], for which the “HDAC1 inhibitory rate (%) (1 μM)” value at HDAC1 enzyme worked out at 41%. In addition, the “HDAC9 inhibitory rate (%) (1 μM)” value at HDAC9 enzyme is listed as 86%. Moreover, the “HDAC6 inhibitory rate (%) (1 μM)” value at HDAC6 enzyme is given as 4%.

Consider `CN(C)c1ccc(C(=O)NCC2CCCCN2C(=O)Nc2ccc(-c3noc(C(F)(F)F)n3)cc2)cc1` (stereo not drawn) [Example 29, 2-(((4-(dimethylamino)benzoyl)amino)methyl)-N-(4-(5-(trifluoromethyl)-1,2,4-oxadiazol-3-yl)phenyl)piperidine-1-carboxamide], for which the results for the inhibition at 1 µM on HDAC1 enzyme, at HDAC9 enzyme and at HDAC6 enzyme were 1%, 88% and 1%, respectively.

Regarding `O=C(NCC1COCCN1C(=O)Nc1ccc(-c2noc(C(F)(F)F)n2)cn1)c1ccccc1` (stereo not drawn) [Example 64, 3-((benzoylamino)methyl)-N-(5-(5-(trifluoromethyl)-1,2,4-oxadiazol-3-yl)pyridin-2-yl)morpholine-4-carboxamide], the figures for the inhibition at 1 µM at HDAC1 enzyme, at HDAC9 enzyme and at HDAC6 enzyme were 85%, 94% and 15%, respectively.

With `O=C(NCC1CCCCN1C(=O)Nc1ccc(-c2noc(C(F)(F)F)n2)cc1)c1cc[n+]([O-])cc1` (stereo not drawn) [Example 37, N-((1-((4-(5-(trifluoromethyl)-1,2,4-oxadiazol-3-yl)phenyl)carbamoyl)piperidin-2-yl)methyl)isonicotinamide 1-oxide], the inhibition at 1 µM came to 2% on HDAC1 enzyme, 88% at HDAC9 enzyme and 2% at HDAC6 enzyme.

With `O=C(NCC1CCCCN1C(=O)Nc1ccc(-c2noc(C(F)(F)F)n2)cc1)C1CC1` (stereo not drawn) [Example 49, 2-(((cyclopropylcarbonyl)amino)methyl)-N-(4-(5-(trifluoromethyl)-1,2,4-oxadiazol-3-yl)phenyl)piperidine-1-carboxamide], the inhibition at 1 µM on HDAC1 enzyme was 75%; on HDAC9 enzyme, 92%; at HDAC6 enzyme it was 7%.

As to `O=C(CCc1ccccc1)NCC1CCCCN1C(=O)Nc1ccc(-c2noc(C(F)(F)F)n2)cc1` (stereo not drawn) [Example 47, 2-(((3-phenylpropanoyl)amino)methyl)-N-(4-(5-(trifluoromethyl)-1,2,4-oxadiazol-3-yl)phenyl)piperidine-1-carboxamide], the results for the inhibition at 1 µM on HDAC1 enzyme, at HDAC9 enzyme and on HDAC6 enzyme were 68%, 89% and 7%, respectively.

On to `Cn1nccc1C(=O)NCC1CCCCN1C(=O)Nc1ccc(-c2noc(C(F)(F)F)n2)cc1` (stereo not drawn) [Example 41, 2-((((1-methyl-1H-pyrazol-5-yl)carbonyl)amino)methyl)-N-(4-(5-(trifluoromethyl)-1,2,4-oxadiazol-3-yl)phenyl)piperidine-1-carboxamide], for which the inhibition at 1 µM came to 59% on HDAC1 enzyme, 98% on HDAC9 enzyme and 7% on HDAC6 enzyme.

`O=C(NCC1CCCCN1C(=O)Nc1ccc(-c2noc(C(F)(F)F)n2)cc1)c1ccccc1` (stereo not drawn) [Example 2, 2-((benzoylamino)methyl)-N-(4-(5-(trifluoromethyl)-1,2,4-oxadiazol-3-yl)phenyl)piperidine-1-carboxamide]: the inhibition at 1 µM on HDAC1 enzyme was determined as 80%; at HDAC9 enzyme it was 90%; at HDAC6 enzyme, 10%.
